Assay results reported in patent US7517998B2, “Non nucleoside reverse transcriptase inhibitors” (priority 2004, dated 2009).

biological target: T1, K103NNY181C mutant reverse transcriptase (Human immunodeficiency virus type 1 group M subtype B, UniProt P04585, K690N/Y768C); experiment: Reverse transcriptase enzymatic assay (PicoGreen), K103N/Y181C mutant RT; type: biochemical, HIV-1; settings: IC50 mut (nM), mutant (K103N/Y181C) reverse transcriptase, enzymatic assay of Example 24
T1 construct: mutations that occur in the reverse transcriptase segment of the pol gene
In short: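 PicoGreen fluorescence (ex 485, em 520 nm) quantified product after EDTA stop. Reaction ran 50 min at 37 °C in pH 7.8 Tris/HCl buffer, 1% DMSO, with poly rC/dG15 template-primer (45/4.5 nM), 3.6 μM dGTP, 2.5 nM enzyme; inhibitor 10 μM–0.508 nM final after 15 min room-temperature pre-incubation.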

Question: For CC(C)(C)c1ccc(-n2nnnc2SCC(=O)Nc2ccc(NC(=O)c3ccc(C(=O)O)cc3)cc2Cl)c(Cl)c1 [Compound 7029], which IC50 is on record?
Answer: 88 nM

Question: COc1ccccc1CC(=O)Nc1ccc(NC(=O)CSc2nnnn2-c2ccc(C(C)(C)C)cc2Cl)c(Cl)c1 [Compound 7018] was tested. Which IC50 did it give?
Answer: 100 nM

Question: How did the IC50 turn out when CC(C)(C)c1ccc(-n2nnnc2SCC(=O)Nc2ccc(NC(=O)Cn3cnnn3)cc2Cl)c(Cl)c1 [Compound 7040] was run?
Answer: 42.5 nM

same assay, conditions: IC50 mut, K103N/Y181C mutant reverse transcriptase, enzymatic assay of Example 24

Question: With CC(C)(C#Cc1ccc(NC(=O)CSc2nnnn2-c2cc(C3CC3)ccc2Cl)c(Cl)c1)NC(=O)CN [Compound 4214] as the compound, how does the IC50 read?
Answer: 19.5 nM

Question: Which IC50 does the source give for CC(C)(C#Cc1ccc(NC(=O)CSc2nnnn2-c2ccc(C3CC3)cc2Cl)c(Cl)c1)OCCO [Compound 4098] here?
Answer: 16.5 nM

Question: For CC(C)(C#Cc1ccc(NC(=O)CSc2nnnn2-c2ccc(C(C)(C)C)cc2Cl)c(Cl)c1F)C(=O)O [Compound 4122], which IC50 is on record?
Answer: 15.5 nM

Question: Which IC50 does the source give for O=C(CSc1nnnn1-c1ccc(C2CC2)cc1Cl)Nc1ccc(C#CC2(CNCCN3CCCC3)CC2)cc1Cl [Compound 4095] here?
Answer: 98.5 nM

Question: Which IC50 does the source give for CC(C)(C#Cc1ccc(NC(=O)CSc2nnnn2-c2ccc(C(C)(C)C)cc2Cl)c(Cl)c1)OCC(=O)Nc1ccc(C(=O)O)cc1 [Compound 4045] here?
Answer: 32 nM

Question: For CCS(=O)(=O)NC(=O)C(C)(C)C#Cc1ccc(NC(=O)CSc2nnnn2-c2ccc(C3CC3)cc2Cl)c(Cl)c1 [Compound 4197], which IC50 is on record?
Answer: 57.5 nM

Question: For CC(C)(C#Cc1ccc(NC(=O)CSc2nnnn2-c2ccc(C3CC3)cc2Cl)c(Cl)c1)NC(=O)c1csnn1 [Compound 4107], which IC50 is on record?
Answer: 15 nM

Question: With CC(C)(C#Cc1ccc(NC(=O)CSc2nnnn2-c2ccc(C(C)(C)C)cc2Cl)c(Cl)c1)OCC(=O)Nc1cnccn1 [Compound 4040] as the compound, how does the IC50 read?
Answer: 58 nM

Question: How did the IC50 turn out when Cc1cc(C#CC(C)(C)C(=O)O)ccc1NC(=O)CSc1nnnn1-c1ccc(C(C)(C)C)cc1Cl [Compound 4057] was run?
Answer: 96 nM

Question: Which IC50 does the source give for CC(C)(C#Cc1ccc(NC(=O)CSc2nnnn2-c2ccc(C3CC3)cc2Cl)c(Cl)c1)NC(=O)CN1CCN(CCn2cccc2)CC1 [Compound 4126] here?
Answer: 78 nM

Question: How did the IC50 turn out when CC(C)(C#Cc1ccc(NC(=O)CSc2nnnn2-c2ccc(C3CC3)cc2Cl)c(Cl)c1F)OCCN1CCCC1 [Compound 4175] was run?
Answer: 67 nM

Question: For CN(C)CC(=O)NC(C)(C)C#Cc1ccc(NC(=O)CSc2nnnn2-c2cc(C(F)(F)F)ccc2Cl)c(Cl)c1 [Compound 4138], which IC50 is on record?
Answer: 43 nM

Question: For CC(C)(C#Cc1ccc(NC(=O)CSc2nnnn2-c2cc(C(C)(C)C)cc(Br)c2Cl)c(Cl)c1)NC(=O)CN1CCNCC1 [Compound 4224], which IC50 is on record?
Answer: 101 nM

Question: Which IC50 does the source give for CC(C)(O)C#Cc1ccc(NC(=O)CSc2nnnn2-c2ccc(C(C)(C)C)cc2Cl)c(Cl)c1 [Compound 4005] here?
Answer: 20 nM

Question: For CC(C)(C#Cc1ccc(NC(=O)CSc2nnnn2-c2ccc(C3CC3)cc2Cl)c(Cl)c1)OCC(N)=O [Compound 4064], which IC50 is on record?
Answer: 11.5 nM

Question: For CN(C)CCCC(=O)NC(C)(C)C#Cc1ccc(NC(=O)CSc2nnnn2-c2ccc(C3CC3)cc2Cl)c(Cl)c1F [Compound 4156], which IC50 is on record?
Answer: 36.5 nM

Question: Which IC50 does the source give for CC(C)(C#Cc1ccc(NC(=O)CSc2nnnn2-c2ccc(C(C)(C)C)cc2Cl)c(Cl)c1)C(=O)O [Compound 4011] here?
Answer: 25 nM

Question: How did the IC50 turn out when CC(CC(=O)O)NC(=O)COC(C)(C)C#Cc1ccc(NC(=O)CSc2nnnn2-c2ccc(C(C)(C)C)cc2Cl)c(Cl)c1 (stereo not shown) [Compound 4046] was run?
Answer: 23 nM

Question: How did the IC50 turn out when CC(C)(O)C#Cc1ccc(NC(=O)CSc2nnnn2-c2cc(C#N)ccc2Cl)c(Cl)c1 [Compound 4021] was run?
Answer: 361 nM

Question: CC(C)(C#Cc1ccc(NC(=O)CSc2nnnn2-c2cc(C(C)(C)C)ccc2Cl)c(Cl)c1)NC(=O)CNc1cc[n+]([O-])cc1 [Compound 4203] was tested. Which IC50 did it give?
Answer: 164 nM

Question: With CC(C)(C#Cc1ccc(NC(=O)CSc2nnnn2-c2ccc(C3CC3)cc2Cl)c(Cl)c1)NC(=O)N1CCNCC1 [Compound 4228] as the compound, how does the IC50 read?
Answer: 30 nM

Question: CC(C)(C#Cc1ccc(NC(=O)CSc2nnnn2-c2ccc(C3CC3)cc2Cl)c(Cl)c1)OCCN [Compound 4190] was tested. Which IC50 did it give?
Answer: 59.5 nM

Question: How did the IC50 turn out when CC(C)(C#Cc1ccc(NC(=O)CSc2nnnn2-c2ccc(C3CC3)cc2Cl)c(Cl)c1)OCCNC1CC1 [Compound 4117] was run?
Answer: 52 nM

Question: Which IC50 does the source give for Cc1cc(C(F)(F)F)cc(-n2nnnc2SCC(=O)Nc2ccc(C#CC(C)(C)O)cc2Cl)c1Cl [Compound 4030] here?
Answer: 21 nM

Question: CNCCOC(=O)COC(C)(C)C#Cc1ccc(NC(=O)CSc2nnnn2-c2ccc(C(C)(C)C)cc2Cl)c(Cl)c1 [Compound 4035] was tested. Which IC50 did it give?
Answer: 56 nM

Question: Cc1cc(C#CC(C)(C)NC(=O)c2cc[n+]([O-])cc2)ccc1NC(=O)CSc1nnnn1-c1ccc(C2CC2)cc1Cl [Compound 4180] was tested. Which IC50 did it give?
Answer: 71 nM

Question: Which IC50 does the source give for CC(C)(C)c1ccc(-n2nnnc2SCC(=O)Nc2ccc(C#CCN3CCCCC3)cc2Cl)c(Cl)c1 [Compound 4014] here?
Answer: 88 nM

Question: With CC(C)(C#Cc1ccc(NC(=O)CSc2nnnn2-c2cccc(Cl)c2Cl)c(Cl)c1)C(=O)O [Compound 4161] as the compound, how does the IC50 read?
Answer: 224 nM

Question: Which IC50 does the source give for CC(C)(C)c1ccc(-n2nnnc2SCC(=O)Nc2ccc(C#CC3CC3)cc2Cl)c(Cl)c1 [Compound 4032] here?
Answer: 39 nM

Question: For CC(C)(C#Cc1ccc(NC(=O)CSc2nnnn2-c2ccc(C(C)(C)C)cc2Cl)c(Cl)c1)OCC(=O)Nc1cccc(C(=O)O)c1 [Compound 4025], which IC50 is on record?
Answer: 44 nM

Question: CC(C)(C#Cc1ccc(NC(=O)CSc2nnnn2-c2cc(C(C)(C)C)cc(Br)c2Cl)c(Cl)c1)C(=O)O [Compound 4219] was tested. Which IC50 did it give?
Answer: 97 nM

Question: For CC(C)(C#Cc1ccc(NC(=O)CSc2nnnn2-c2cc(C(C)(C)C)ccc2Cl)c(Cl)c1)C(=O)O [Compound 4200], which IC50 is on record?
Answer: 35.5 nM

Question: How did the IC50 turn out when CC(C)(N)C#Cc1ccc(NC(=O)CSc2nnnn2-c2cc(C(C)(C)C)ccc2Cl)c(Cl)c1 [Compound 4201] was run?
Answer: 52 nM

Question: Which IC50 does the source give for CC(C)(O)C#Cc1ccc(NC(=O)CSc2nnnn2-c2c(F)ccc(C(F)(F)F)c2Cl)c(Cl)c1 [Compound 4022] here?
Answer: 185 nM

Question: Which IC50 does the source give for CC(C)(C#Cc1ccc(NC(=O)CSc2nnnn2-c2ccc(C(C)(C)C)cc2Cl)c(Cl)c1)OCC(=O)NCCC(=O)O [Compound 4055] here?
Answer: 15 nM

Question: With CN(C)CCCNC(=O)C(C)(C)C#Cc1ccc(NC(=O)CSc2nnnn2-c2ccc(C3CC3)cc2Cl)c(Cl)c1 [Compound 4145] as the compound, how does the IC50 read?
Answer: 48 nM

same assay, conditions: IC50 mut, mutant reverse transcriptase, enzymatic assay of Example 24

Question: With CC(C)(C)c1ccc(-n2nnnc2SCC(=O)Nc2ccc(-c3ccc(OCC(=O)O)c(Cl)c3)cc2Cl)c(Cl)c1 [Compound 3013] as the compound, how does the IC50 read?
Answer: 24 nM

Question: CC(CC(=O)O)NC(=O)COc1ccc(NC(=O)CSc2nnnn2-c2ccc(C(C)(C)C)cc2Cl)c(Cl)c1 (stereo not shown) [Compound 5014] was tested. Which IC50 did it give?
Answer: 146 nM

Question: For O=C(CSc1nnnn1-c1ccc(C2CC2)cc1Cl)Nc1ccc(-c2ccc(OCCN3CCS(=O)(=O)CC3)cc2)c(F)c1Cl [Compound 2059], which IC50 is on record?
Answer: 13 nM

Question: Which IC50 does the source give for CN(CCc1ccncc1)C(=O)COc1ccc(NC(=O)CSc2nnnn2-c2ccc(C3CC3)cc2Cl)c(Cl)c1 [Compound 5037] here?
Answer: 174 nM

Question: CC(C)(C)c1ccc(-n2nnnc2SCC(=O)Nc2ccc(OCC(=O)Nc3cccc(O)c3)cc2Cl)c(Cl)c1 [Compound 5011] was tested. Which IC50 did it give?
Answer: 69 nM

Question: How did the IC50 turn out when CC(C)(C)c1ccc(-n2nnnc2SCC(=O)Nc2ccc(OCC(=O)NC3CCN(Cc4ccccc4)CC3)cc2Cl)c(Cl)c1 [Compound 5008] was run?
Answer: 861 nM

Question: How did the IC50 turn out when Cc1ccc(-c2nnsc2SCC(=O)Nc2ccc(-c3ccc(CC(=O)O)cc3)cc2Cl)c(Cl)c1 [Compound 1007] was run?
Answer: 107 nM

Question: CC(C)(C)c1ccc(-n2nnnc2SCC(=O)Nc2ccc(C(=O)NC3CCN(Cc4ccccc4)CC3)cc2Cl)c(Cl)c1 [Compound 6009] was tested. Which IC50 did it give?
Answer: 73 nM

Question: With CC(C)(C)c1ccc(-n2nnnc2SCC(=O)Nc2ccc(OCC(=O)Nc3ccc(N4CCOCC4)cc3)cc2Cl)c(Cl)c1 [Compound 5005] as the compound, how does the IC50 read?
Answer: 216 nM

Question: Cc1ccc(-n2nnnc2SCC(=O)Nc2ccc(-c3csc(N)n3)cc2Cl)c(Cl)c1 [Compound 3015] was tested. Which IC50 did it give?
Answer: 185 nM

Question: How did the IC50 turn out when O=C(CSc1nnnn1-c1ccc(C2CC2)cc1Cl)Nc1ccc(-c2ccc(OCCN3CCCCC3)cc2)c(F)c1Cl [Compound 2051] was run?
Answer: 30.5 nM

Question: How did the IC50 turn out when CC(C)(C)c1ccc(-n2nnnc2SCC(=O)Nc2ccc(-c3ccc(OCCN4CC[C@@H](O)C4)cc3)cc2Cl)c(Cl)c1 [Compound 2041] was run?
Answer: 28 nM

Question: Which IC50 does the source give for Cc1ccc(-n2nnnc2SCC(=O)Nc2ccc(-c3coc(C)n3)cc2Cl)c(Cl)c1 [Compound 3017] here?
Answer: 308 nM

Question: With CC(C)(C)c1ccc(-n2nnnc2SCC(=O)Nc2ccc(-c3ccc(S(C)(=O)=O)cc3)cc2Cl)c(Cl)c1 [Compound 2027] as the compound, how does the IC50 read?
Answer: 23 nM

Question: With CNS(=O)(=O)c1ccc(NC(=O)CSc2nnnn2-c2ccc(C(C)(C)C)cc2Cl)c(Cl)c1 [Compound 3021] as the compound, how does the IC50 read?
Answer: 63 nM

Question: For CC(C)(C)c1ccc(-n2nnnc2SCC(=O)Nc2ccc(S(=O)(=O)NCC(=O)O)cc2Cl)c(Cl)c1 [Compound 3032], which IC50 is on record?
Answer: 97.5 nM

Question: How did the IC50 turn out when CN1CCN(NS(=O)(=O)c2ccc(NC(=O)CSc3nnnn3-c3ccc(C4CC4)cc3Cl)c(Cl)c2)CC1 [Compound 3037] was run?
Answer: 112 nM

Question: With COC(=O)/C=C/c1ccc(NC(=O)CSc2nnnn2-c2ccc(C)cc2Cl)c(Cl)c1 [Compound 3005] as the compound, how does the IC50 read?
Answer: 305 nM

Question: Cn1cc(NC(=O)COc2ccc(NC(=O)CSc3nnnn3-c3ccc(C(C)(C)C)cc3Cl)c(Cl)c2)cc1C(=O)O [Compound 5029] was tested. Which IC50 did it give?
Answer: 34 nM

Question: CN(CCc1cc[n+]([O-])cc1)C(=O)COc1ccc(NC(=O)CSc2nnnn2-c2ccc(C3CC3)cc2Cl)c(Cl)c1 [Compound 5041] was tested. Which IC50 did it give?
Answer: 132 nM

Question: O=C(CSc1nnnn1-c1ccc(C2CC2)cc1Cl)Nc1ccc(-c2ccc(OCCN3CCCC3)cc2)c(F)c1Cl [Compound 2057] was tested. Which IC50 did it give?
Answer: 8.8 nM

Question: With CC(C)(C)c1ccc(-n2nnnc2SCC(=O)Nc2ccc(-c3ccc(OCCN4CC[C@H](O)C4)cc3)cc2Cl)c(Cl)c1 [Compound 2042] as the compound, how does the IC50 read?
Answer: 15 nM

Question: CC(CC(=O)O)NC(=O)c1ccc(NC(=O)CSc2nnnn2-c2ccc(C(C)(C)C)cc2Cl)c(Cl)c1 (stereo not shown) [Compound 6015] was tested. Which IC50 did it give?
Answer: 39 nM

Question: Which IC50 does the source give for CN(C)c1ccc(NC(=O)COc2ccc(NC(=O)CSc3nnnn3-c3ccc(C(C)(C)C)cc3Cl)c(Cl)c2)cc1 [Compound 5012] here?
Answer: 466 nM

Question: With CC(C)(C)c1ccc(-n2nnnc2SCC(=O)Nc2ccc(OCC(=O)NC(CO)C(=O)O)cc2Cl)c(Cl)c1 (stereo not shown) [Compound 5018] as the compound, how does the IC50 read?
Answer: 92 nM
